Converted amounts (≈) assume the structure as drawn.
How the values were obtained:
Assay type in all cases: functional, organism-based
[1] = system: Zymoseptoria tritici; test: Antifungal activity against azoxystrobin-sensitive Zymoseptoria tritici T0470 carrying cytochrome-b G143 allele assessed as inhibition of spore germination after 2 days at 18 degC by spotting on PDA medium assay; settings: T0470, 48 h
[2] = system: Zymoseptoria tritici; test: Antifungal activity against azoxystrobin-resistant Zymoseptoria tritici T0262 carrying cytochrome-b A143 allele assessed as fungal growth inhibition after 6 days at 20 degC by microplate without alamar blue assay; settings: T0262, 144 h
[3] = system: Zymoseptoria tritici; test: Antifungal activity against azoxystrobin-sensitive Zymoseptoria tritici T0213 carrying cytochrome-b G143 allele assessed as inhibition of spore germination after 2 days at 18 degC by spotting on PDA medium assay; settings: T0213, 48 h
[4] = system: Zymoseptoria tritici; test: Antifungal activity against azoxystrobin-sensitive Zymoseptoria tritici T0278 carrying cytochrome-b G143 allele assessed as fungal growth inhibition after 6 days at 20 degC by microplate without alamar blue assay; settings: T0278, 144 h
[5] = system: Zymoseptoria tritici; test: Antifungal activity against azoxystrobin-resistant Zymoseptoria tritici T0290 carrying cytochrome-b A143 allele assessed as inhibition of spore germination after 2 days at 18 degC by spotting on PDA medium assay; settings: T0290, 48 h
[6] = system: Zymoseptoria tritici; test: Antifungal activity against azoxystrobin-sensitive Zymoseptoria tritici T0473 carrying cytochrome-b G143 allele assessed as fungal growth inhibition after 6 days at 20 degC by microplate without alamar blue assay; settings: T0473, 144 h
[7] = system: Zymoseptoria tritici; test: Antifungal activity against azoxystrobin-sensitive Zymoseptoria tritici T083 carrying cytochrome-b G143 allele assessed as inhibition of spore germination after 2 days at 18 degC by spotting on PDA medium assay; settings: T083, 48 h
[8] = system: Zymoseptoria tritici; test: Antifungal activity against azoxystrobin-sensitive Zymoseptoria tritici T0213 carrying cytochrome-b G143 allele assessed as fungal growth inhibition after 6 days at 20 degC by microplate without alamar blue assay; settings: T0213, 144 h
[9] = system: Zymoseptoria tritici; test: Antifungal activity against azoxystrobin-sensitive Zymoseptoria tritici T0403 carrying cytochrome-b G143 allele assessed as inhibition of spore germination after 2 days at 18 degC by spotting on PDA medium assay; settings: T0403, 48 h
[10] = system: Zymoseptoria tritici; test: Antifungal activity against azoxystrobin-sensitive Zymoseptoria tritici T0464 carrying cytochrome-b G143 allele assessed as fungal colony perpendicular diameter changes after 10 days at 18 degC by spotting on PDA medium assay; settings: T0464, 240 h
[11] = system: Zymoseptoria tritici; test: Antifungal activity against azoxystrobin-sensitive Zymoseptoria tritici T0468 carrying cytochrome-b G143 allele assessed as fungal growth inhibition after 6 days at 20 degC by microplate without alamar blue assay; settings: T0468, 144 h
[12] = system: Zymoseptoria tritici; test: Antifungal activity against azoxystrobin-resistant Zymoseptoria tritici T032 carrying cytochrome-b A143 allele assessed as fungal colony perpendicular diameter changes after 10 days at 18 degC by spotting on PDA medium assay; settings: T032, 240 h
[13] = system: Zymoseptoria tritici; test: Antifungal activity against azoxystrobin-sensitive Zymoseptoria tritici T021 carrying cytochrome-b G143 allele assessed as fungal growth inhibition after 6 days at 20 degC by microplate without alamar blue assay; settings: T021, 144 h
[14] = system: Zymoseptoria tritici; test: Antifungal activity against azoxystrobin-sensitive Zymoseptoria tritici T0384 carrying cytochrome-b G143 allele assessed as inhibition of spore germination after 2 days at 18 degC by spotting on PDA medium assay; settings: T0384, 48 h
[15] = system: Zymoseptoria tritici; test: Antifungal activity against azoxystrobin-resistant Zymoseptoria tritici T0251 carrying cytochrome-b A143 allele assessed as fungal colony perpendicular diameter changes after 10 days at 18 degC by spotting on PDA medium assay; settings: T0251, 240 h
[16] = system: Zymoseptoria tritici; test: Antifungal activity against azoxystrobin-sensitive Zymoseptoria tritici T0213 carrying cytochrome-b G143 allele assessed as fungal colony perpendicular diameter changes after 10 days at 18 degC by spotting on PDA medium assay; settings: T0213, 240 h
[17] = system: Zymoseptoria tritici; test: Antifungal activity against azoxystrobin-sensitive Zymoseptoria tritici T0210 carrying cytochrome-b G143 allele assessed as fungal colony perpendicular diameter changes after 10 days at 18 degC by spotting on PDA medium assay; settings: T0210, 240 h
[18] = system: Zymoseptoria tritici; test: Antifungal activity against azoxystrobin-resistant Zymoseptoria tritici T0451 carrying cytochrome-b A143 allele assessed as inhibition of spore germination after 2 days at 18 degC by spotting on PDA medium assay; settings: T0451, 48 h
[19] = system: Zymoseptoria tritici; test: Antifungal activity against azoxystrobin-sensitive Zymoseptoria tritici T0210 carrying cytochrome-b G143 allele assessed as inhibition of spore germination after 2 days at 18 degC by spotting on PDA medium assay; settings: T0210, 48 h
[20] = system: Zymoseptoria tritici; test: Antifungal activity against azoxystrobin-resistant Zymoseptoria tritici T055 carrying cytochrome-b A143 allele assessed as fungal growth inhibition after 6 days at 20 degC by microplate without alamar blue assay; settings: T055, 144 h
[21] = system: Zymoseptoria tritici; test: Antifungal activity against azoxystrobin-sensitive Zymoseptoria tritici T0278 carrying cytochrome-b G143 allele assessed as fungal colony perpendicular diameter changes after 10 days at 18 degC by spotting on PDA medium assay; settings: T0278, 240 h
[22] = system: Zymoseptoria tritici; test: Antifungal activity against azoxystrobin-sensitive Zymoseptoria tritici T0214 carrying cytochrome-b G143 allele assessed as fungal colony perpendicular diameter changes after 10 days at 18 degC by spotting on PDA medium assay; settings: T0214, 240 h
[23] = system: Zymoseptoria tritici; test: Antifungal activity against azoxystrobin-resistant Zymoseptoria tritici T049 carrying cytochrome-b A143 allele assessed as inhibition of spore germination after 2 days at 18 degC by spotting on PDA medium assay; settings: T049, 48 h
[24] = system: Zymoseptoria tritici; test: Antifungal activity against azoxystrobin-resistant Zymoseptoria tritici T0254 carrying cytochrome-b A143 allele assessed as fungal colony perpendicular diameter changes after 10 days at 18 degC by spotting on PDA medium assay; settings: T0254, 240 h
[25] = system: Zymoseptoria tritici; test: Antifungal activity against azoxystrobin-sensitive Zymoseptoria tritici T083 carrying cytochrome-b G143 allele assessed as fungal growth inhibition after 6 days at 20 degC by microplate without alamar blue assay; settings: T083, 144 h
[26] = system: Zymoseptoria tritici; test: Antifungal activity against azoxystrobin-resistant Zymoseptoria tritici T0345 carrying cytochrome-b A143 allele assessed as inhibition of spore germination after 2 days at 18 degC by spotting on PDA medium assay; settings: T0345, 48 h
[27] = system: Zymoseptoria tritici; test: Antifungal activity against azoxystrobin-sensitive Zymoseptoria tritici T0148 carrying cytochrome-b G143 allele assessed as fungal growth inhibition after 6 days at 20 degC by microplate without alamar blue assay; settings: T0148, 144 h
[28] = system: Zymoseptoria tritici; test: Antifungal activity against azoxystrobin-resistant Zymoseptoria tritici T0262 carrying cytochrome-b A143 allele assessed as inhibition of spore germination after 2 days at 18 degC by spotting on PDA medium assay; settings: T0262, 48 h
[29] = system: Zymoseptoria tritici; test: Antifungal activity against azoxystrobin-sensitive Zymoseptoria tritici T0468 carrying cytochrome-b G143 allele assessed as fungal colony perpendicular diameter changes after 10 days at 18 degC by spotting on PDA medium assay; settings: T0468, 240 h
[30] = system: Zymoseptoria tritici; test: Antifungal activity against azoxystrobin-resistant Zymoseptoria tritici T0293 carrying cytochrome-b A143 allele assessed as fungal colony perpendicular diameter changes after 10 days at 18 degC by spotting on PDA medium assay; settings: T0293, 240 h

Compound: CO/C=C(/C(=O)OC)c1ccccc1Oc1cc(Oc2ccccc2C#N)ncn1 [AZOXYSTROBIN]
- IC50 [1]: 0.02 µg/mL (≈ 0.0496 µM)
- IC50 [2]: 11.7 µg/mL (≈ 28.9 µM)
- IC50 [3]: 0.16 µg/mL (≈ 0.397 µM)
- IC50 [4]: 0.04 µg/mL (≈ 0.0992 µM)
- IC50 [5]: 20.1 µg/mL (≈ 49.8 µM)
- IC50 [6]: 0.01 µg/mL (≈ 0.0248 µM)
- IC50 [7]: 0.08 µg/mL (≈ 0.198 µM)
- IC50 [8]: 0.03 µg/mL (≈ 0.0744 µM)
- IC50 [9]: < 0.01 µg/mL
- IC50 [10]: 0.25 µg/mL (≈ 0.62 µM)
- IC50 [11]: 0.02 µg/mL (≈ 0.0496 µM)
- IC50 [12]: 37.8 µg/mL (≈ 93.8 µM)
- IC50 [13]: 0.22 µg/mL (≈ 0.545 µM)
- IC50 [14]: 0.76 µg/mL (≈ 1.88 µM)
- IC50 [15]: 15.3 µg/mL (≈ 38 µM)
- IC50 [16]: 0.11 µg/mL (≈ 0.273 µM)
- IC50 [17]: 0.06 µg/mL (≈ 0.149 µM)
- IC50 [18]: 29.6 µg/mL (≈ 73.3 µM)
- IC50 [19]: 0.01 µg/mL (≈ 0.0248 µM)
- IC50 [20]: > 100 µg/mL
- IC50 [21]: 0.17 µg/mL (≈ 0.421 µM)
- IC50 [22]: 0.09 µg/mL (≈ 0.223 µM)
- IC50 [23]: 11.6 µg/mL (≈ 28.7 µM)
- IC50 [24]: 10.8 µg/mL (≈ 26.8 µM)
- IC50 [25]: 0.5 µg/mL (≈ 1.24 µM)
- IC50 [26]: 12.6 µg/mL (≈ 31.3 µM)
- IC50 [27]: 0.21 µg/mL (≈ 0.521 µM)
- IC50 [28]: > 100 µg/mL
- IC50 [29]: 0.23 µg/mL (≈ 0.57 µM)
- IC50 [30]: 10.2 µg/mL (≈ 25.2 µM)
